The text below walks through data of US11033539B2, “Compounds of formulas (VII), (VIII), (IX), (XI), (XII), (XIII), and (XIV) as muscarinic receptor 4(M4) antagonists for treating neurological diseases” (Neurocrine Biosciences, Inc., priority 2015, dated 2021).

In general, Ki refers to a measure of affinity in units of concentration, obtained from inhibition or displacement.

The target of the assay is human M4 receptor (Homo sapiens (Human), UniProt P08173). The assay can be described thus: Radioligand (tritiated N-methylscopolamine) binding assay, M4. Particulars: Ki against the M4 receptor; membranes from CHO cells expressing human M4; tritiated N-methylscopolamine 1.5 nM; read-out: Ki. How it is done: Binding affinity (Ki) of compounds was measured by inhibition of radioligand binding to membranes from CHO cells expressing human M1, M2, M3, M4 and M5 receptors. Membranes were prepared by nitrogen cavitation and differential centrifugation as previously described (Hoare et al., Mol. Pharmacol. 2003 March; 63(3): 751-65). The radioligand employed was tritiated N-methylscopolamine, used at a concentration of 1.5 nM. A dose-response of twelve concentrations of compound was used, ranging from 10 μM to […]. The assay buffer was 50 mM HEPES, 100 mM NaCl, 5 mM MgCl2, 1 mM ethylenediaminetetraacetic acid, pH-adjusted to pH 7.4. Membranes, radioligand and compound were incubated together for 90 minutes at 37° C., in a total volume of 150 μl in a 96-well plate. Receptor-bound radioligand was then collected by harvesting the assay over glass fiber filters pretreated with polyethylenimine to trap the cell membranes, using rapid vacuum filtration. Harvesting and radioactivity counting was conducted as previously described (see, e.g., Hoare et al., Mol. Pharmacol. 2003 63(3):751-65); Erratum at Mol. Pharmacol. 2005 July; 68(1): 260).
human M4 receptor, sequence (P08173 whole entry): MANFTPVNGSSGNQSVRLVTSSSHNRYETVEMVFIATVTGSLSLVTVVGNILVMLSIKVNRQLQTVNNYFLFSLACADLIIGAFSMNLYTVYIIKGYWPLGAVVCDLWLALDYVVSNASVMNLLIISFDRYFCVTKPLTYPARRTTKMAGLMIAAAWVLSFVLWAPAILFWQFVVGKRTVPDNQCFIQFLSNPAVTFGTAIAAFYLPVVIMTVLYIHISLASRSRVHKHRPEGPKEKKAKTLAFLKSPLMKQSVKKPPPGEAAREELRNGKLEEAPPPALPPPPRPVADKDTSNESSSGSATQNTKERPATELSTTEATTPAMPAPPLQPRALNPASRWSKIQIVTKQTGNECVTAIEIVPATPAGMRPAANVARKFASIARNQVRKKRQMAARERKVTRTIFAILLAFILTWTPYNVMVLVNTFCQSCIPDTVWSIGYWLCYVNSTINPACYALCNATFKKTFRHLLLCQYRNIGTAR

Consider `O=C(NCCC1CCN(Cc2ccccc2)CC1O)C1CCN(c2ccc(OC(F)(F)F)cc2)CC1` (stereo not shown) [9-27, N-[2-(1-benzyl-3-hydroxypiperidin-4-yl)ethyl]-1-[4-(trifluoromethoxy)phenyl]piperidine-4-carboxamide], for which the Ki is 10 to 100 nM.
As to `C[C@@H]1CN(c2ccc(F)nc2)CCN1C(=O)NCCC1CCN(Cc2ccccc2)CC1` [4-35, (2R)-N-[2-(1-benzylpiperidin-4-yl)ethyl]-4-(6-fluoropyridin-3-yl)-2-methylpiperazine-1-carboxamide], the Ki lay within 10 to 100 nM.
As to `Cc1c(C(=O)NCCC2CCN(Cc3ccccc3)CC2)cnc2cc(-c3cccc(C#N)c3)nn12` [18-8], the Ki is 10 to 100 nM.
With `C[C@@H]1CN(c2ncc(C(F)(F)F)cn2)CCN1C(=O)NCCC1CCN(Cc2ccc(C#N)cc2)CC1` [6-41, (2R)-N-(2-{1-[(4-cyanophenyl)methyl]piperidin-4-yl}ethyl)-2-methyl-4-[5-(trifluoromethyl)pyrimidin-2-yl]piperazine-1-carboxamide], the Ki lay within 10 to 100 nM.
Regarding `N#Cc1cc(C(F)(F)F)ccc1N1CCN(C(=O)NCCC2CCN(Cc3ccccc3)CC2)CC1` [8-12, N-[2-(1-benzylpiperidin-4-yl)ethyl]-4-[2-cyano-4-(trifluoromethyl)phenyl]piperazine-1-carboxamide], the Ki lay in the range of 10 to 100 nM.
As for `O=C(c1ccc(-c2ccccc2)cc1)N(C1CC1)C1CCN(Cc2ccccc2)CC1` [9-2, N-(1-benzylpiperidin-4-yl)-N-cyclopropyl-4-phenylbenzamide], the Ki lay in the range of 100 to 1000 nM.
Consider `CCCn1c(=O)c2nc(-c3ccc(C(=O)NCCC4CCN(Cc5ccccc5)CC4)cc3)[nH]c2n(CCC)c1=O` [9-45, N-[2-(1-benzylpiperidin-4-yl)ethyl]-4-(2,6-dioxo-1,3-dipropyl-2,3,6,9-tetrahydro-1H-purin-8-yl)benzamide], for which the Ki fell in the range of 10 to 100 nM.
For `C[C@@H]1CN(c2cc(F)c(F)c(F)c2)CCN1C(=O)NCCC1CCN(Cc2c(F)cccc2F)CC1` [6-28, (2R)-N-(2-{1-[(2,6-difluorophenyl)methyl]piperidin-4-yl}ethyl)-2-methyl-4-(3,4,5-trifluorophenyl)piperazine-1-carboxamide], the Ki was in the range of 100 to 1000 nM.
As to `O=C(NCCC1CCN(Cc2ccccc2)CC1)N1CCC(c2c[nH]c3ccccc23)CC1` [8-30, N-[2-(1-benzylpiperidin-4-yl)ethyl]-4-(1H-indol-3-yl)piperidine-1-carboxamide], the Ki lay in the range of 100 to 1000 nM.
In the case of `C[C@@H]1CN(c2ncc(C(=O)N(C)C)cn2)CCN1C(=O)NCCC1CCN(Cc2ccccc2)CC1` [27-17] it was 100 to 1000 nM; in that of `CC(C)c1noc(C2CCN(C(=O)NCCC3CCN(Cc4ccccc4)CC3)CC2)n1` [8-31, N-[2-(1-benzylpiperidin-4-yl)ethyl]-4-[3-(propan-2-yl)-1,2,4-oxadiazol-5-yl]piperidine-1-carboxamide], 100 to 1000 nM; in that of `C=CCNC(=O)c1cnc(N2C[C@@H](C)N(C(=O)NCCC3CCN(Cc4ccccc4)CC3)[C@@H](C)C2)nc1` [27-4], 100 to 1000 nM.
For the compound `Cc1c(C(=O)NCCC2CCN(Cc3cccc4c3OCCO4)CC2)cnc2cc(-c3ccccc3)nn12` [19-2], the Ki was in the range of 10 to 100 nM.
On to `C[C@@H]1CN(c2ncc(C#N)cn2)C[C@H](C)N1C(=O)NCCC1CCN(Cc2ccc3occc3c2)CC1` [6-60, (2R,6S)-N-{2-[1-(1-benzofuran-5-ylmethyl)piperidin-4-yl]ethyl}-4-(5-cyanopyrimidin-2-yl)-2,6-dimethylpiperazine-1-carboxamide], for which the Ki lay in the range of 10 to 100 nM.
For “4-(benzyloxy)-N-{2-[1-(pyridin-3-ylmethyl)piperidin-4-yl]ethyl}benzamide [11-20]”, the Ki was 100 to 1000 nM.
As to `C[C@@H]1CN(c2ncc(C#N)cn2)C[C@H](C)N1C(=O)NCCC1CCN(CCc2ccccc2)CC1` [6-44, (2R,6S)-4-(5-cyanopyrimidin-2-yl)-2,6-dimethyl-N-{2-[1-(2-phenylethyl)piperidin-4-yl]ethyl}piperazine-1-carboxamide], the Ki lay in the range of 100 to 1000 nM.
`C[C@@H]1CN(c2nc(F)c(F)c(F)n2)CCN1C(=O)NCCC1CCN(Cc2ccccc2)CC1` [5-6, (2R)-N-[2-(1-benzylpiperidin-4-yl)ethyl]-2-methyl-4-(trifluoropyrimidin-2-yl)piperazine-1-carboxamide]: the Ki lay within 10 to 100 nM.
As for `C[C@@H]1CN(c2cc(F)c(F)c(F)c2)CCN1C(=O)NCCC1CCN(Cc2csnn2)CC1` [6-8, (2R)-2-methyl-N-{2-[1-(1,2,3-thiadiazol-4-ylmethyl)piperidin-4-yl]ethyl}-4-(3,4,5-trifluorophenyl)piperazine-1-carboxamide], the Ki lay within 10 to 100 nM.
`O=C(C1CCN(c2ncc(C(F)(F)F)cc2Cl)CC1)N(CCC1CCN(Cc2ccccc2)CC1)C1CC1` [9-58, N-[2-(1-benzylpiperidin-4-yl)ethyl]-1-[3-chloro-5(trifluoromethyl)pyridin-2-yl]-N-cyclopropylpiperidine-4-carboxamide]: the Ki lay within 100 to 1000 nM.
In the case of `COc1cc(OC(F)(F)F)cc(N2CCC(C(=O)NCCC3CCN(Cc4ccccc4)CC3)CC2)c1` [10-29, N-[2-(1-benzylpiperidin-4-yl)ethyl]-1-[3-methoxy-5-(trifluoromethoxy)phenyl]piperidine-4-carboxamide], the Ki lay within 10 to 100 nM.
As for `COC1(C(=O)NCCC2CCN(Cc3ccccc3)CC2)CCN(c2ccc(C(F)(F)F)cn2)CC1` [10-48, N-[2-(1-benzylpiperidin-4-yl)ethyl]-4-methoxy-1-[5-(trifluoromethyl)pyridin-2-yl]piperidine-4-carboxamide], the Ki lay in the range of 100 to 1000 nM.
`O=C(NCCC1CCN(Cc2ccccc2)CC1)c1ccn2cc(-c3ccc(OC(F)(F)F)cc3)nc2c1` [9-25, N-[2-(1-benzylpiperidin-4-yl)ethyl]-2-[4-(trifluoromethoxy)phenyl]imidazo[1,2-a]pyridine-7-carboxamide]: the Ki lay in the range of 10 to 100 nM.
In the case of `C[C@@H]1CN(c2cc(F)c(F)c(F)c2)CCN1C(=O)NCCC1CCN(Cc2ccccn2)CC1` [6-7, (2R)-2-methyl-N-{2-[1-(pyridin-2-ylmethyl)piperidin-4-yl]ethyl}-4-(3,4,5-trifluorophenyl)piperazine-1-carboxamide] it was 10 to 100 nM; in that of `C[C@@H]1CN(c2cnc(C(F)(F)F)nc2)C[C@H](C)N1C(=O)NCCC1CCN(Cc2cccc(F)c2)CC1` [6-51, (2R,6S)-N-(2-{1-[(3-fluorophenyl)methyl]piperidin-4-yl}ethyl)-2,6-dimethyl-4-[2-(trifluoromethyl)pyrimidin-5-yl]piperazine-1-carboxamide], 10 to 100 nM; in that of `N#Cc1cnc(N2CCN(C(=O)NCCC3CCN(Cc4ccccc4)CC3)C[C@H]2CO)nc1` [5-25, (3S)-N-[2-(1-benzylpiperidin-4-yl)ethyl]-4-(5-cyanopyrimidin-2-yl)-3-(hydroxymethyl)piperazine-1-carboxamide], 100 to 1000 nM.
Take `C[C@@H]1CN(c2nc(C#N)cc(C#N)n2)CCN1C(=O)NCCC1CCN(Cc2ccccc2)CC1` [4-75, (2R)-N-[2-(1-benzylpiperidin-4-yl)ethyl]-4-(4,6-dicyanopyrimidin-2-yl)-2-methylpiperazine-1-carboxamide]: the Ki lay in the range of 10 to 100 nM.
For the compound `C[C@@H]1CN(c2ccccc2F)CCN1C(=O)NCCC1CCN(Cc2ccccc2)CC1` [4-49, (2R)-N-[2-(1-benzylpiperidin-4-yl)ethyl]-4-(2-fluorophenyl)-2-methylpiperazine-1-carboxamide], the Ki lay in the range of 100 to 1000 nM.
With `O=C(NCCC1(O)CCN(Cc2ccccc2)CC1)C1CCN(c2cccc(OC(F)(F)F)c2)CC1` [9-46, N-[2-(1-benzyl-4-hydroxypiperidin-4-yl)ethyl]-1-[3-(trifluoromethoxy)phenyl]piperidine-4-carboxamide], the Ki lay in the range of 10 to 100 nM.
On to `O=C(NCCC1CCN(Cc2cccc3c2OCC3)CC1)C1CCN(c2ccc(OC(F)(F)F)cc2)CC1` [11-29, N-{2-[1-(2,3-dihydro-1-benzofuran-7-ylmethyl)piperidin-4-yl]ethyl}-1-[4-(trifluoromethoxy)phenyl]piperidine-4-carboxamide], for which the Ki lay in the range of 100 to 1000 nM.
For `O=C(NCCC1CCN(Cc2ccccc2)CC1)C1CCN(c2ccc(Cl)nc2)CC1` [10-27, N-[2-(1-benzylpiperidin-4-yl)ethyl]-1-(6-chloropyridin-3-yl)piperidine-4-carboxamide], the Ki lay within 100 to 1000 nM.
On to `COc1cccnc1N1CCN(C(=O)NCCC2CCN(Cc3ccccc3)CC2)[C@H](C)C1` [4-8, (2R)-N-[2-(1-benzylpiperidin-4-yl)ethyl]-4-(3-methoxypyridin-2-yl)-2-methylpiperazine-1-carboxamide], for which the Ki fell in the range of 100 to 1000 nM.
`N#Cc1ccc(N2CCC(C(=O)NCCC3CCN(Cc4ccccc4)CC3)CC2)c(F)c1` [10-50, N-[2-(1-benzylpiperidin-4-yl)ethyl]-1-(4-cyano-2-fluorophenyl)piperidine-4-carboxamide]: the Ki fell in the range of 100 to 1000 nM.
Take `O=C(NCCC1CCN(Cc2ccccc2)CC1)C1CCN(c2ccccc2F)CC1` [10-59, N-[2-(1-benzylpiperidin-4-yl)ethyl]-1-(2-fluorophenyl)piperidine-4-carboxamide]: the Ki is 100 to 1000 nM.
Regarding `C[C@H]1CN(c2ncc(C#N)cn2)CCC1C(=O)NCCC1CCN(Cc2ccccc2)CC1` (stereo partly drawn) [20-1, (3R)-N-[2-(1-benzylpiperidin-4-yl)ethyl]-1-(5-cyanopyrimidin-2-yl)-3-methylpiperidine-4-carboxamide], the Ki fell in the range of 10 to 100 nM.
